Assay results from PMC7738869, “A novel STAT3 inhibitor W2014-S regresses human non-small cell lung cancer xenografts and sensitizes EGFR-TKI acquired resistance” (Theranostics, 2021).

Key:
pY705-STAT3 = test: Western blot of pY705-STAT3 in A549 cells; type: cell-based, human
Method: (§1) Cells or tumor tissue were lysed with RIPA buffer (Beyotime, Shanghai, China) supplemented with protease inhibitors (Beyotime, Shanghai, China) and phosphatase inhibitors (Bimake, USA). Lysates were denatured by heating for 5 min at 99 °C and loaded on 4-10% SDS-polyacrylamide gel electrophoresis. Then the proteins were transferred to polyvinylidene fluoride (PVDF) membranes (Millipore, USA). The membranes were blocked and probed with primary antibodies and secondary HPR-conjugated antibodies. At last the membranes were detected by chemiluminescence (Tanon, Shanghai, China). For co-immunoprecipitation experiments, 293T cells were plated and grew to about 80% confluency, then co-transfected with plasmids of HA-STAT3 and Flag-STAT3 using Lipofectamine 2000. After 24 h, cells were treated with different concentrations of W2014-S for following 24 h, and stimulated with IL-6 (100 ng/mL) for 1 h. Cells were lysed with IP RIPA buffer (Beyotime, Shanghai, China) supplemented with protease inhibitors (Beyotime, Shanghai, China) and phosphatase inhibitors (Bimake, America), and lysates were cultured with Anti-flag Affinity Gel (B23102, Bimake, USA) overnight at 4 ℃. The gel was washed by PBST for three times and added 1×loading buffer and denatured by heating for 5 min at 99 ℃. Then the proteins were resolved on SDS-PAGE, transferred to PVDF membranes and analysed with immunoblotting.

A549 cells = test: Wound healing assay for migration; type: cell-based, human; details: 48 h
Method: The motility of cells was measured by wound healing assay. Cells were seeded into 6-well plates and cultured to 90-100% confluent after 24 h. Wounds were made in each well of 6-well plates using pipette tips. […] The migration of cells was visualized under a microscope (4 ×, Nikon, Japan) and photographed in different time points (0 and 48 h).

c-Caspase-7 = test: Western blot of c-Caspase-7 in A549 and PC-9 cells; type: cell-based, human
Method: as §1

PC-9/GR cells = test: Cell viability assay (CCK-8), PC-9/GR; type: cell-based, human; details: 72 h
Method: Cell proliferation was measured using the Cell Counting Kit-8 (CCK-8, B34304, Bimake, USA). A549 (2 × 10^3/100 μL/well), PC-9 (3 × 10^3/100 μL/well) or PC-9/GR cells (3 × 10^3/100 μL/well) were plated into each well of 96-well plates (Costar, USA). […] Then, 10 μL of CCK-8 was added to each well, and cells were incubated for 1-4 h until the color of untreated controls turned to orange. The absorbance (A) was measured by a microplate reader (FLUOstar Omega-ACU, USA) at test and reference wavelengths of 450 nm. The percentage of growth was calculated as Cell viability (%) = [A (Compound +) - A (Blank) ] / [A (Compound -) - A (Blank) ] × 100%. Cell viability meant proliferation of cells. Each experiment was done at least in triplicate, and thrice independently.

PC-9 cells [1] = test: Colony formation assay, PC-9; type: cell-based, human; details: PC-9, as low as 0.3 μM
A549 xenografts = test: A549 tumor xenografts in nude mice; type: in vivo
Method: To establish cell xenograft model, nude mice were injected subcutaneously with A549 cells (2×10^6) or PC-9/GR cells (4×10^6). For PDX model, the PDX sample was from The Jackson Laboratory. The model ID is TM00192/LG0567F. For this patient, the primary site is lung, the initial and diagnosis and final diagnosis is lung adenocarcinoma. The stage/grade is AJCC IB/grade 3. […] The sample type is surgical resection. […] The tumor sample were cut into approximately 1 mm^3, and the tissue was pushed under skin of mice by TROCHAR. When tumor volumes reached approximately 100 mm^3, mice were randomly distributed into groups of 7 mice. […] Tumor size was measured every two days by vernier caliper. The average tumor volume in each group was calculated based on the equation for a prolate spheroid (tumor volume = (short-diameter)^2 × large-diameter × π / 6 ) and expressed in mm^3.

Acute toxicity study = type: in vivo; details: KM mice, 100, 300 and 500 mg/kg i.p., observed 14 days
Method: KM mice (4-5 weeks of age, weighing 18-22g, both male and female) for acute toxicity experiment were provided from the Experimental Animal Center of Sun Yat-sen University (Guangdong, China) and were housed in a specific pathogen-free facility. To test the acute toxicity, 40 mice were randomly distributed into 4 groups, and treated with W2014-S at 100 mg/kg, 300 mg/kg, and 500 mg/kg by intraperitoneal injection. Each group have 10 mice (half male and half female). […] All animal experiments were approved by the Research Ethics Committee of Sun Yat-sen University (SYSU-IACUC-2020-000312).

PC-9 cells [2] = test: Cell apoptosis assay (Annexin V-FITC/PI flow cytometry), PC-9; type: cell-based, human; details: PC-9, 1.0 μM, 72 h
Method: Briefly, aliquots of 2 × 10^5 cells were seeded into 6-well plates and incubated for 24 h at 37 °C. […] After trypsinization and gently washing cells once with medium, the cells were washed twice with cold PBS. The precipitation was resuspended by 400 μL of 1 × binding buffer, and then resuspended cells were transferred into new 1.5 mL EP tubes. Then 3 μL of Annexin V-FITC and 5 μL of propidium iodide were added to the resuspended cells with further incubation at room temperature for 15 min in the dark. The analysis was done on Guava easyCyte (USA) and FlowJo 7.6 software.

C[C@H](Oc1ccc(-c2nc3nc(C4=CCN(C(=O)OC(C)(C)C)CC4)ccc3[nH]2)cc1)c1ccccc1 [W2014-S]
phosphorylation level of STAT3 (pY705-STAT3; A549, 0, 1, 3 and 5 μM, 24 h): inhibit the phosphorylation level of STAT3 in a dose dependent manner, and more potent than W2014-R
phosphorylation of STAT3 at Y705, time course (pY705-STAT3; A549, 1 μM, 0-24 h): inhibited after 1 h treatment
cell migration (A549 cells): remarkably inhibited the migration
cleavage of caspase-7 (c-Caspase-7): induced
sensitization of acquired resistance (erlotinib) (PC-9/GR cells; PC-9/GR, with erlotinib): sensitized acquired resistance
resensitization of PC-9/GR to gefitinib (PC-9/GR cells; W2014-S 1 μM, gefitinib 2 μM): sufficient to resensitize PC-9/GR to gefitinib
colony formation (PC-9 cells [1]): significantly suppressed the colony formation
body weights and signs of toxicity during treatment (A549 xenografts; A549 xenograft mice, 5 or 15 mg/kg daily, 21 d): no significant changes in body weights, or obvious signs of toxicity
level of pY705-STAT3 in tumor (western blot) (A549 xenografts; A549 xenografts): significantly suppressed the level of pY705-STAT3
growth of xenografts (A549 xenografts; A549 xenografts, i.p. 5 or 15 mg/kg daily, 21 d): significantly inhibited growth
expression of Ki-67 in tumor (IHC) (A549 xenografts; A549 xenografts, vs vehicle): significantly reduced
acute toxicity: body weights and signs of toxicity (Acute toxicity study): no significant changes in body weights, or obvious signs of toxicity
apoptosis (PC-9 cells [2]): induced apoptosis
